The values below come from patent publication US20220387608A1, “ADRENOMEDULLIN-ANALOGUES FOR LONG-TERM STABILIZATION AND THEIR USE” (Bayer Aktiengesellschaft, priority 2019, published 2022).

Positions of bridges follow the written chain, without caps; N, C: chain ends. Non-standard residues stand in square brackets, D forms with d. Residues, ends and D or L forms follow the SMILES beside them. *: point of attachment. C18 diacid = O=C(O)CCCCCCCCCCCCCCCCC(=O)*; AEEEA = NCCOCCOCCOCC(=O)O; PEG3 = NCCOCCOCCOCCC(=O)O; Dap = NC[C@H](N)C(=O)O

In the assay the target is T1, AM1R (Homo sapiens, UniProt O60895+Q16602).
T1 construct: EYFP; ECFP; expressed in transfected cells; host or cells: HEK-293 (transient co-transfection)
T1 sequence (Q16602 23-461): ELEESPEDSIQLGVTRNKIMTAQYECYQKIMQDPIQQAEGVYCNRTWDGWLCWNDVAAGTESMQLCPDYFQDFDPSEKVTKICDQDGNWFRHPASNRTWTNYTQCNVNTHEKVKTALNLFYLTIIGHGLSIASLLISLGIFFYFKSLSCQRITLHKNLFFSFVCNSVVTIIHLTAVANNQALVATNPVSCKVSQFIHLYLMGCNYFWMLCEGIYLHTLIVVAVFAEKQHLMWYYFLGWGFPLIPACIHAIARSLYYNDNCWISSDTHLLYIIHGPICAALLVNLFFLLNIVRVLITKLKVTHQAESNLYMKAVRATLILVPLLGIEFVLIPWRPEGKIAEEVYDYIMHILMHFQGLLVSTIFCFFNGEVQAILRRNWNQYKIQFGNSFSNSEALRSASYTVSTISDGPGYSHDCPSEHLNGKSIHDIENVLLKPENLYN
T1 sequence (O60895 43-175): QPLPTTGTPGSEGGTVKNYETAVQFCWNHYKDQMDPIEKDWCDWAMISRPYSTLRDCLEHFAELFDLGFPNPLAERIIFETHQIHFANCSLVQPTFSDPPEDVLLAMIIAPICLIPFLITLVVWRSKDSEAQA
Nature of the assay: Activity determination in vitro: cAMP/CRE-luciferase reporter assay in HEK293 cells transiently co-transfected with CLR and RAMP2. The class given is cell-based. As to conditions: for Emax: HEK293, normalized to [G14]ADM(14-52); for EC50: HEK293 with CLR/RAMP2, CRE-luciferase, 3 h stimulation. The method, then:
(1a) Activity Determination of Adrenomedullin Analogues in vitro
Cell Culture HEK-293 cells (human embryonic kidney cells) were cultured in Ham's F-12/DMEM (1/1; v/v) containing 15% FCS under humidified atmosphere at 37° C. and 5% CO2 in 75 cm^2 cell culture flasks.
Cells were cultured in 75 cm^2 flasks to 70-80% confluency. 45 μl Metafectene® Pro was diluted in 900 ρl Ham's F-12/DMEM (1/1; v/v) and incubated for 20 min at room temperature. 9 μg plasmid containing DNA of CLR fused to EYFP and 3 μg plasmid containing DNA of RAMP2 fused to ECFP were dissolved in 900 μl Ham's F-12/DMEM (1/1; v/v). The plasmid solution was mixed with the Metafectene® Pro solution and incubated for 25 min at room temperature. Medium was removed from the cells and replaced by 6 m1 Ham's F-12/DMEM (1/1; v/v) containing 15% FCS. After addition of transfection solution the cells were incubated for 3 h under humidified atmosphere at 37° C. and 5% CO2. For the second transfection 45 μl Metafectene® Pro was diluted in 900 μl Ham's F-12/DMEM (1/1; v/v) and incubated for 20 min at room temperature. 12 μg of pGL4.29[Luc2P/CRE/Hygro] plasmid containing DNA for the luciferase reporter gene luc2P (with CRE promotor region) were dissolved in 900 μl Ham's F-12/DMEM (1/1; v/v). The plasmid solution was mixed with the Metafectene® Pro solution and incubated for 25 min at room temperature. Medium was removed from the cells and replaced by 6 m1 Ham's F-12/DMEM (1/1; v/v) containing 15% FCS. After addition of transfection solution, the cells were incubated under humidified atmosphere at 37° C. and 5% CO2 over night.
For coating of 96-well-plates, 50 μl of a poly-D-lysine solution in DPBS (0.1 mg/ml) were pipetted in each well and incubated for 40 min. After removal of poly-D-lysine, each well was washed with 50 μl DPBS. Transiently transfected cells were detached from the cell culture flask by removal of the medium, 2-fold washing with 5 m1 DPBS and resuspending in 40 m1 Ham's F-12/DMEM (1/1; v/v) containing 15% FCS. 90,000 to 120,000 cells in 150 μl Ham's F-12/DMEM (1/1; v/v) containing 15% FCS were seeded per well and the plates were incubated under humidified atmosphere at 37° C. and 5% CO2 over night.
For each ligand, a serial dilution with eight different concentrations was prepared using Ham's F^12/DMEM (1/1; v/v). Before stimulation, the medium on the cells was replaced by 100 μl Ham's F^12/DMEM (1/1; v/v) and the plates were incubated for 1 h under humidified atmosphere at 37° C. and 5% CO2. For stimulation, the medium was removed and the cells were incubated for 3 h in 80 μl of ligand-solution under humidified atmosphere at 37° C. and 5% CO2. In addition 80 μl of a 5 μM forskolin solution in Ham's F-12/DMEM (1/1; v/v) was used as a positive control and 80 μl of Ham's F-12/DMEM (1/1; v/v) as a negative control. Each concentration and the controls were tested as triplicates.
After 3 h of stimulation, the solutions were removed and the cells were washed with 50 μl of Ham's F-12/DMEM (1/1; v/v) perwell. After 10 m incubation in 30 μl of Ham's F-12/DMEM (1/1; v/v) at room temperature, 30 μl of luciferase-solution (ONE-Glo™ Luciferase Assay System) was added and the luminescence was directly measured using an Infinite M200 (Tecan).
Data analysis of the luminescence measurement was carried out with GraphPad Prism 5. Therefore, the measured luminescence values of each plate were first corrected on the base of the respective average of forskolin stimulation. Afterwards they were normalized to [G14]ADM(14-52), which was used as standard peptide in every assay. After correction and normalization, data was analyzed using non-linear regression giving dose-response curves for each tested ligand.

For `CC[C@H](C)[C@H](NC(=O)[C@H](CCC(N)=O)NC(=O)[C@H](Cc1c[nH]cn1)NC(=O)[C@H](C)NC(=O)[C@H](CC(C)C)NC(=O)[C@H](CCCCN)NC(=O)[C@H](CCC(N)=O)NC(=O)[C@@H](NC(=O)[C@@H](NC(=O)[C@@H]1CCC(=O)NC[C@H](NC(=O)CNC(=O)[C@@H](N)CCCCNC(=O)CCCCCCCCCCCCCCCCC(=O)O)C(=O)N[C@@H](CCCNC(=N)N)C(=O)N[C@@H](Cc2ccccc2)C(=O)NCC(=O)N[C@@H]([C@@H](C)O)C(=O)N1)[C@@H](C)O)C(C)C)C(=O)N[C@@H](Cc1ccc(O)cc1)C(=O)N[C@@H](CCC(N)=O)C(=O)N[C@@H](Cc1ccccc1)C(=O)N[C@H](C(=O)N[C@@H](CC(=O)O)C(=O)N[C@@H](CCCCN)C(=O)N[C@@H](CC(=O)O)C(=O)N[C@@H](CCCCN)C(=O)N[C@@H](CC(=O)O)C(=O)N[C@@H](CC(N)=O)C(=O)N[C@H](C(=O)N[C@@H](C)C(=O)N1CCC[C@H]1C(=O)N[C@@H](CCCNC(=N)N)C(=O)N[C@@H](CO)C(=O)N[C@@H](CCCCN)C(=O)N[C@H](C(=O)N[C@@H](CO)C(=O)N1CCC[C@H]1C(=O)N[C@@H](CCC(N)=O)C(=O)NCC(=O)N[C@@H](Cc1ccc(O)cc1)C(N)=O)[C@@H](C)CC)C(C)C)[C@@H](C)O` [Example 15, ((3S,9S,12S,15S,21S)-15-(2-((S)-2-amino-6-(17-carboxyoctadecanamido)hexanamido)acetamido)-9-benzyl-12-(3-guanidinopropyl)-3-((R)-1-hydroxyethyl)-2,5,8,11,14,18-hexaoxo-1,4,7,10,13,17-hexaazacyclohenicosane-21-carbonyl)-L-threonyl-ADM(23-52)] (H-K(C18 diacid)G[Dap]RFGTETVQKLAHQIYQFTDKDKDNVAPRSKISPQGY-NH2; lactam 3-8), the Emax (in general, the greatest response seen or fitted, relative to the assay's reference) was 89 ± 2% and the midpoint of the response, the EC50, lay at 3.4 nM.

On to `CC[C@H](C)[C@H](NC(=O)[C@H](CCC(N)=O)NC(=O)[C@H](Cc1c[nH]cn1)NC(=O)[C@H](C)NC(=O)[C@H](CC(C)C)NC(=O)[C@H](CCCCN)NC(=O)[C@H](CCC(N)=O)NC(=O)[C@@H](NC(=O)[C@@H](NC(=O)[C@@H]1CSSC[C@H](NC(=O)CNC(=O)[C@@H](N)CCCCNC(=O)CCCCCCCCCCCCCCCCC(=O)O)C(=O)N[C@@H](CCCNC(=N)N)C(=O)N[C@@H](Cc2ccccc2)C(=O)NCC(=O)N[C@@H]([C@@H](C)O)C(=O)N1)[C@@H](C)O)C(C)C)C(=O)N[C@@H](Cc1ccc(O)cc1)C(=O)N[C@@H](CCC(N)=O)C(=O)N[C@@H](Cc1ccccc1)C(=O)N[C@H](C(=O)NCCOCCOCCOCCC(=O)N[C@@H](CC(=O)O)C(=O)N[C@@H](CC(N)=O)C(=O)N[C@H](C(=O)N[C@@H](C)C(=O)N1CCC[C@H]1C(=O)N[C@H]1CCCCNC(=O)C[C@@H](C(=O)N2CCC[C@H]2C(=O)N[C@@H](CCC(N)=O)C(=O)NCC(=O)N[C@@H](Cc2ccc(O)cc2)C(N)=O)NC(=O)[C@H]([C@@H](C)CC)NC(=O)[C@H](CCCCN)NC(=O)[C@H](CO)NC1=O)C(C)C)[C@@H](C)O` [Example 14] (H-K(C18 diacid)GCRFGTCTVQKLAHQIYQFT[PEG3]DNVAPKSKIDPQGY-NH2; disulfide 3-8; lactam 28-32), for which the Emax turned out to be 92 ± 5% and the concentration for a half-maximal effect (EC50) – broadly, the concentration needed to bring the measured effect to its halfway point – amounted to 6.6 nM.

The compound `CC[C@H](C)[C@H](NC(=O)[C@H](CCC(N)=O)NC(=O)[C@H](Cc1c[nH]cn1)NC(=O)[C@H](C)NC(=O)[C@H](CC(C)C)NC(=O)[C@H](CCCCN)NC(=O)[C@H](CCC(N)=O)NC(=O)[C@@H](NC(=O)[C@@H](NC(=O)[C@@H]1CSSC[C@H](NC(=O)CNC(=O)CN)C(=O)N[C@@H](CCCNC(=N)N)C(=O)N[C@@H](Cc2ccccc2)C(=O)NCC(=O)N[C@@H]([C@@H](C)O)C(=O)N1)[C@@H](C)O)C(C)C)C(=O)N[C@@H](Cc1ccc(O)cc1)C(=O)N[C@@H](CCC(N)=O)C(=O)N[C@@H](Cc1ccccc1)C(=O)N[C@H](C(=O)N[C@@H](CC(=O)O)C(=O)NCCOCCOCCOCCC(=O)N[C@@H](CC(N)=O)C(=O)N[C@H](C(=O)N[C@@H](C)C(=O)N1CCC[C@H]1C(=O)N[C@@H](CCCNC(=N)N)C(=O)N[C@@H](CO)C(=O)N[C@@H](CCCCN)C(=O)N[C@H](C(=O)N[C@@H](CO)C(=O)N1CCC[C@H]1C(=O)N[C@@H](CCC(N)=O)C(=O)NCC(=O)N[C@@H](Cc1ccc(O)cc1)C(N)=O)[C@@H](C)CC)C(C)C)[C@@H](C)O` [Example 9, ((4R,7S,13S,16S,19R)-19-(2-(2-aminoacetamido)acetamido)-13-benzyl-16-(3-guanidinopropyl)-7-((R)-1-hydroxyethyl)-6,9,12,15,18-pentaoxo-1,2-dithia-5,8,11,14,17-pentaazacycloicosane-4-carbonyl)-L-threonyl-ADM(23-35)-(3-(2-(2-(2-(λ^2-azaneyl)ethoxy)ethoxy)ethoxy)propanoyl)-L-asparagyl-ADM(41-52)] (H-GGCRFGTCTVQKLAHQIYQFTD[PEG3]NVAPRSKISPQGY-NH2; disulfide 3-8) had a maximal response (Emax) of 87 ± 4% and an EC50 of 49 nM.

On to `CC[C@H](C)[C@H](NC(=O)[C@H](CCC(N)=O)NC(=O)[C@H](Cc1c[nH]cn1)NC(=O)[C@H](C)NC(=O)[C@H](CC(C)C)NC(=O)[C@H](CCCCN)NC(=O)[C@H](CCC(N)=O)NC(=O)[C@@H](NC(=O)[C@@H](NC(=O)[C@@H]1CSSC[C@H](NC(=O)CNC(=O)CN)C(=O)N[C@@H](CCCNC(=N)N)C(=O)N[C@@H](Cc2ccccc2)C(=O)NCC(=O)N[C@@H]([C@@H](C)O)C(=O)N1)[C@@H](C)O)C(C)C)C(=O)N[C@@H](Cc1ccc(O)cc1)C(=O)N[C@@H](CCC(N)=O)C(=O)N[C@@H](Cc1ccccc1)C(=O)N[C@H](C(=O)NCCOCCOCCOCC(=O)N[C@@H](CC(=O)O)C(=O)N[C@@H](CC(N)=O)C(=O)N[C@H](C(=O)N[C@@H](C)C(=O)N1CCC[C@H]1C(=O)N[C@@H](CCCNC(=N)N)C(=O)N[C@@H](CO)C(=O)N[C@@H](CCCCN)C(=O)N[C@H](C(=O)N[C@@H](CO)C(=O)N1CCC[C@H]1C(=O)N[C@@H](CCC(N)=O)C(=O)NCC(=O)N[C@@H](Cc1ccc(O)cc1)C(N)=O)[C@@H](C)CC)C(C)C)[C@@H](C)O` [Example 6, ((4R,7S,13S,16S,19R)-19-(2-(2-aminoacetamido)acetamido)-13-benzyl-16-(3-guanidinopropyl)-7-((R)-1-hydroxyethyl)-6,9,12,15,18-pentaoxo-1,2-dithia-5,8,11,14,17-pentaazacycloicosane-4-carbonyl)-L-threonyl-ADM(23-34)-(2-(2-(2-(2-(k2-azaneyl)ethoxy)ethoxy)ethoxy)acetyl)-L-aspartyl-ADM(40-52)] (H-GGCRFGTCTVQKLAHQIYQFT[AEEEA]DNVAPRSKISPQGY-NH2; disulfide 3-8), for which the Emax was 95 ± 7% and the EC50 is 21 nM.
